Data from ChEMBL document CHEMBL5338777, “Small-Molecule Modulators Targeting Toll-like Receptors for Potential Anticancer Therapeutics” (J Med Chem, 2023).
One block for each compound: values may come before it.

Tests used:
Toll-like receptor 5 = Toll-like receptor 5 (Homo sapiens, UniProt O60602); experiment: Antagonist activity at TLR5 (unknown origin)
Toll-like receptor 7 [1] = target: T1, Toll-like receptor 7 (Homo sapiens, UniProt Q9NYK1)
T1 sequence (Q9NYK1 whole entry): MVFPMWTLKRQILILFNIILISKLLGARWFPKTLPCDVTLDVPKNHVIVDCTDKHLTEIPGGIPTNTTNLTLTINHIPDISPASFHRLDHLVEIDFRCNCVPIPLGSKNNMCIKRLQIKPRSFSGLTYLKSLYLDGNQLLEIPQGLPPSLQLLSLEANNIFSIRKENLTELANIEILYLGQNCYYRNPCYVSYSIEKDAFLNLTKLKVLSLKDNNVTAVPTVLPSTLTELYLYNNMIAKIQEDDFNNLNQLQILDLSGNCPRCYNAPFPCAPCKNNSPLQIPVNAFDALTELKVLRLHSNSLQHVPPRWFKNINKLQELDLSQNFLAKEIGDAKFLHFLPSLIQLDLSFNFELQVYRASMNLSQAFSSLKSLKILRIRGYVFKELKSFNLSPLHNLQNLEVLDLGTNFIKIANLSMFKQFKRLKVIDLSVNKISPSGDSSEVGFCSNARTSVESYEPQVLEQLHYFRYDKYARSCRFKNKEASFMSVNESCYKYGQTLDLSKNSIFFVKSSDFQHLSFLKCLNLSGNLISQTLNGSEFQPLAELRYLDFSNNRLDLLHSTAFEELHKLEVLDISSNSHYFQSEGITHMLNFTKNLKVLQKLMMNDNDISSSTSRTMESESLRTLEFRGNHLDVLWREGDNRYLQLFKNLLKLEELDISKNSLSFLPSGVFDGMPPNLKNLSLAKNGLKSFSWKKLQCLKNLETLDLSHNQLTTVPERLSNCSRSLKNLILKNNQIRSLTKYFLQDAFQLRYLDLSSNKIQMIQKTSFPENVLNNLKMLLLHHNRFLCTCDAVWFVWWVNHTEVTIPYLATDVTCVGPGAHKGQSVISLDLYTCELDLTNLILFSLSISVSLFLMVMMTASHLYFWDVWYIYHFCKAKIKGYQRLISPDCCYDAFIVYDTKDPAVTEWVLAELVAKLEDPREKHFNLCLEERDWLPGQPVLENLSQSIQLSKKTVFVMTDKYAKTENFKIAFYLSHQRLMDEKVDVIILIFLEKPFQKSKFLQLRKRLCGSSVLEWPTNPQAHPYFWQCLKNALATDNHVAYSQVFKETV
Description: (§1) Agonist activity at TLR7 (unknown origin)

Toll-like receptor 8 [2] = target: T2, Toll-like receptor 8 (Homo sapiens, UniProt Q9NR97)
T2 sequence (Q9NR97 whole entry): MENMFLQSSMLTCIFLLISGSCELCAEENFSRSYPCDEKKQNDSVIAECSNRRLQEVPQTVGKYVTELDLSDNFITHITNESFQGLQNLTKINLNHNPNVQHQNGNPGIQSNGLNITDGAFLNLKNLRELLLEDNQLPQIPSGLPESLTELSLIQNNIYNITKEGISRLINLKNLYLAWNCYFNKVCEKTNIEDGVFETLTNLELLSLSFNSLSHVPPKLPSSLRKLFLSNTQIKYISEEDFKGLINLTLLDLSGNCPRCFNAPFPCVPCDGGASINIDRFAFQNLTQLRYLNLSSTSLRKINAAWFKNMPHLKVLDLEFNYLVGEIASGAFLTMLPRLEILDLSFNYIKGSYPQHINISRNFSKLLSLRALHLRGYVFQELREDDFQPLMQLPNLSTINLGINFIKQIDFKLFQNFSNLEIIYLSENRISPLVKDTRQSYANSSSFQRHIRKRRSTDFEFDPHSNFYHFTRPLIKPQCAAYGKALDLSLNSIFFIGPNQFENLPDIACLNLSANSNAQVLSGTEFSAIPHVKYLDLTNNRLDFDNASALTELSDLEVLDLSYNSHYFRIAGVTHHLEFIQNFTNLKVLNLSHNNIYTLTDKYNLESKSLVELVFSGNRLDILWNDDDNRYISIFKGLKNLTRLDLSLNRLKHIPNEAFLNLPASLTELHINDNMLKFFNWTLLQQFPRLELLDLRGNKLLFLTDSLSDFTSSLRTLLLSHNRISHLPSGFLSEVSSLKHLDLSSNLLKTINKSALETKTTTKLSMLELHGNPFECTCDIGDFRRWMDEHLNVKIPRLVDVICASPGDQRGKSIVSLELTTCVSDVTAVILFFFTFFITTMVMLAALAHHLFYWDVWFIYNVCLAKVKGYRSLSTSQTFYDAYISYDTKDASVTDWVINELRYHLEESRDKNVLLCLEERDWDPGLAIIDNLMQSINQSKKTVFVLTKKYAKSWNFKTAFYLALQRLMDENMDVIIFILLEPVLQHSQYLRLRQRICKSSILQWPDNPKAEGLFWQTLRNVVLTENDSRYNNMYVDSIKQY
Description: (§2) Agonist activity at TLR8 (unknown origin)

Toll-like receptor 8 [3] = target: T2, Toll-like receptor 8; experiment: Antagonist activity at human TLR8
Toll-like receptor 8 [4] = target: T2, Toll-like receptor 8; remark: listed apart in the source
Description: as §2

Toll-like receptor 4 [5] = target: Toll-like receptor 4 (Homo sapiens, UniProt O00206); experiment: Inhibition of TLR4 in human HEK293T cells co-expressing MD-2 receptor; format: cell-based
Sequence of Toll-like receptor 4 (Homo sapiens, UniProt O00206) (O00206 whole entry): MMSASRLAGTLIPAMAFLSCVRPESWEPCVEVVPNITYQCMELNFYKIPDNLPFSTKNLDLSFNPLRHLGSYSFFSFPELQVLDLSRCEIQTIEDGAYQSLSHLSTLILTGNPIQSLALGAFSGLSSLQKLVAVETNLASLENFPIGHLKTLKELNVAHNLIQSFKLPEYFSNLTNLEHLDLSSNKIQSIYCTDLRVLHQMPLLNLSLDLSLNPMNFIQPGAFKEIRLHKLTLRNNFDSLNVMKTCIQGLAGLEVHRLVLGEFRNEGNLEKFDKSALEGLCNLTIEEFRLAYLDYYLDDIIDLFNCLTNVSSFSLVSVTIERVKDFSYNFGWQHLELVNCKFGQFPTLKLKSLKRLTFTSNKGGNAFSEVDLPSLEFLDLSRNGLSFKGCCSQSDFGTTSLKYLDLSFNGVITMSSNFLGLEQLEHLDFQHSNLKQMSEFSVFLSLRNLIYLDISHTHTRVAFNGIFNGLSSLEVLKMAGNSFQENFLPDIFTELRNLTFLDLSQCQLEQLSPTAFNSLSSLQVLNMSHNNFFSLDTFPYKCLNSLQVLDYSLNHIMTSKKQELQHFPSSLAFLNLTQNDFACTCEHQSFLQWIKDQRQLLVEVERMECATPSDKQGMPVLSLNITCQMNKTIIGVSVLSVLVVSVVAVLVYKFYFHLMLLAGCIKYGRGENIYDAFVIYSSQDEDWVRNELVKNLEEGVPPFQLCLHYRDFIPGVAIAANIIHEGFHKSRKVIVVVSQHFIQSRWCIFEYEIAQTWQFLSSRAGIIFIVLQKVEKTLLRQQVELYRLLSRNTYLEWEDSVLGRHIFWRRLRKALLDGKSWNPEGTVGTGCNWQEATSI

TLR2/TLR6 [6] = target: T3, TLR2/TLR6 (Homo sapiens, UniProt O60603+Q9Y2C9); experiment: Antagonist activity at TLR2/TLR6 in human THP-1 cells; format: cell-based
T3 sequence (O60603 whole entry): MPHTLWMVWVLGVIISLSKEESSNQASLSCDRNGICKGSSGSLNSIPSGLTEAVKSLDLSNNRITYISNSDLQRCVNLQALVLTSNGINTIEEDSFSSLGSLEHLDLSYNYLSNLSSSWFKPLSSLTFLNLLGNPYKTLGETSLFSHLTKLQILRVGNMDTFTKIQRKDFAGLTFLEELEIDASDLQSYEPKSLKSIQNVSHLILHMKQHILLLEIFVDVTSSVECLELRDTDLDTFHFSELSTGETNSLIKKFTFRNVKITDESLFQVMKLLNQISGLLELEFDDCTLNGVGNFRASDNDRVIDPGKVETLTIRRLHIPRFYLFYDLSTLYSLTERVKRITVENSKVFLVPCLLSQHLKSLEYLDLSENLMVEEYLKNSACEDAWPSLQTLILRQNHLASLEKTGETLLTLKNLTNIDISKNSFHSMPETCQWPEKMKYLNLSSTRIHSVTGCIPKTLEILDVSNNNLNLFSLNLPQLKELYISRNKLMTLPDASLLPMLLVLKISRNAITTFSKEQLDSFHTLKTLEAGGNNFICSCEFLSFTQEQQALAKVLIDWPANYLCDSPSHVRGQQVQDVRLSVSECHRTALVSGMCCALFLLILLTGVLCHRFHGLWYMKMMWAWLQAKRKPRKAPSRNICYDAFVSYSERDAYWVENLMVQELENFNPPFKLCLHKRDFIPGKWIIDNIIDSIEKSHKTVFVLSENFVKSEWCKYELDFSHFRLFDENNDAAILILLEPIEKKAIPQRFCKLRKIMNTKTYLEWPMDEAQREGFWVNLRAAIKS
T3 sequence (Q9Y2C9 whole entry): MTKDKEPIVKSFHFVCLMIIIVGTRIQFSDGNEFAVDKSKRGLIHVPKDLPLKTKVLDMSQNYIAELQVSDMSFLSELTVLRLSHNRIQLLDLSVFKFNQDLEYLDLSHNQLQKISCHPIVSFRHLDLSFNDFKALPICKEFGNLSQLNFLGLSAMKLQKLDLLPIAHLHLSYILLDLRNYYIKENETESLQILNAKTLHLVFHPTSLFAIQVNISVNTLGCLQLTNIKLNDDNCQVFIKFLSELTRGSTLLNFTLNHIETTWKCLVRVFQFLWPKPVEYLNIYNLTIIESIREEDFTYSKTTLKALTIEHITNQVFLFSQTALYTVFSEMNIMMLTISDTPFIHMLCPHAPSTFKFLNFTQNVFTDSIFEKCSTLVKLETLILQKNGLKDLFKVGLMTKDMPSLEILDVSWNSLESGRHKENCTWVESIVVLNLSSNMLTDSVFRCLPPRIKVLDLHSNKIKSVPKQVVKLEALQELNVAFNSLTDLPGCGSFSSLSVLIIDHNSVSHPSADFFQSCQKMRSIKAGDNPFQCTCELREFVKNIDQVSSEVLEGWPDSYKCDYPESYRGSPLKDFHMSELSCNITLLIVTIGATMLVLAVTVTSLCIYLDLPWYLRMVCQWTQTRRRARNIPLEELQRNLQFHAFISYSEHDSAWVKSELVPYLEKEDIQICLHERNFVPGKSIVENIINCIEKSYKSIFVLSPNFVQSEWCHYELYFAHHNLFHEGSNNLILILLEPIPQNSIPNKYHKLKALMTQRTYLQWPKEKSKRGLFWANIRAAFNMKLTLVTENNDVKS

Toll-like receptor 1/2 [7] = target: T4, Toll-like receptor 1/2 (Homo sapiens, UniProt O60603+Q15399); experiment: Antagonist activity at TLR1/TLR2 in HEK-Blue hTLR2 cells; format: cell-based
T4 sequence (O60603 whole entry): as the sequence (O60603 whole entry) above
T4 sequence (Q15399 whole entry): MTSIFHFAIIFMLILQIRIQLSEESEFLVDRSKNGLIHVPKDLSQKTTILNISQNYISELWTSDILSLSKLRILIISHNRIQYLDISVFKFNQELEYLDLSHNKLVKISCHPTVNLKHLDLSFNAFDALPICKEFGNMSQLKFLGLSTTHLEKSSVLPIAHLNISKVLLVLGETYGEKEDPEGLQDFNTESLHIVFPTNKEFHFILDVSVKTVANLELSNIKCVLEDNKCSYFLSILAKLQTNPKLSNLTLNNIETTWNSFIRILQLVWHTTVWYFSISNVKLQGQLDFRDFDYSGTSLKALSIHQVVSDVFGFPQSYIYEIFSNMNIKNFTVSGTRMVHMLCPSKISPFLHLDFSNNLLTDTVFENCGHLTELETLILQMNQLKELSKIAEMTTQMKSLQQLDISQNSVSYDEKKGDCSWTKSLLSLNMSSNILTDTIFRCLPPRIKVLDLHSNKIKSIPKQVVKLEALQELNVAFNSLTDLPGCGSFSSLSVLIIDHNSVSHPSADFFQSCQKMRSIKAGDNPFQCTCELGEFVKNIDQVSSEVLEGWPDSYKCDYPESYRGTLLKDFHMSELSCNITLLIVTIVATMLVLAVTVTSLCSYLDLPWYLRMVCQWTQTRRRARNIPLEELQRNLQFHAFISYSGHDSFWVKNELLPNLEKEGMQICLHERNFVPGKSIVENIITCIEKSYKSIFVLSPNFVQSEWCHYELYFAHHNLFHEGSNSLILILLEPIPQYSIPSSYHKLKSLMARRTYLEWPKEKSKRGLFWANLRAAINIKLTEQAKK

Toll-like receptor 3 = target: T5, Toll-like receptor 3 (Homo sapiens, UniProt O15455); experiment: Antagonist activity at TLR3 (unknown origin)
T5 sequence (O15455 whole entry): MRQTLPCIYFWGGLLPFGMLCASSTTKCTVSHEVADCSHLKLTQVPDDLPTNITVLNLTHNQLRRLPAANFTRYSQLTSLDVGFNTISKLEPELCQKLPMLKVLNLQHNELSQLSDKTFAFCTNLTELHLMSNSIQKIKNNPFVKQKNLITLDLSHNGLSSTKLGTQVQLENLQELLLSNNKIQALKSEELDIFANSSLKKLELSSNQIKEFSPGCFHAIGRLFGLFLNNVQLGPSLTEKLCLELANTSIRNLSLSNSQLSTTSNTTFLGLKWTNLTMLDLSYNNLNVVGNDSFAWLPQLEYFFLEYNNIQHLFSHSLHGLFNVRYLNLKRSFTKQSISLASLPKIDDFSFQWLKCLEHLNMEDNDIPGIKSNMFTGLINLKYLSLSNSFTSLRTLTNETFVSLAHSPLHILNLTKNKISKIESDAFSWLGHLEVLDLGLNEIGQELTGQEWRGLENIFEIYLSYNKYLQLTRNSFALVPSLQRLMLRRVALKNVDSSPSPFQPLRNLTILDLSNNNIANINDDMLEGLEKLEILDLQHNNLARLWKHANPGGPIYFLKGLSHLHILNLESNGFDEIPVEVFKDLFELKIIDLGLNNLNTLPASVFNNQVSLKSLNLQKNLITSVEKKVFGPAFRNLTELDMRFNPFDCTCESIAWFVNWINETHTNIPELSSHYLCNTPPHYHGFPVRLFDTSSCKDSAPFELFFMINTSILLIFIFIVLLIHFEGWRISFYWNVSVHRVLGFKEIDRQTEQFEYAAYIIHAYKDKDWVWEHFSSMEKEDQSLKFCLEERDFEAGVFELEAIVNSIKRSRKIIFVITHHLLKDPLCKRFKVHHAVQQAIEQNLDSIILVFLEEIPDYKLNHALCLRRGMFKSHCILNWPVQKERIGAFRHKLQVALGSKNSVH

TLR2/TLR6 [8] = target: T3, TLR2/TLR6; experiment: Antagonist activity at human TLR2/TLR6; format: protein-complex assay
Toll-like receptor 1/2 [9] = target: T4, Toll-like receptor 1/2; experiment: Antagonist activity at human TLR1/TLR2; format: protein-complex assay
[10] = Antagonist activity at TLR2/TLR4 (unknown origin); parameters: species or system Homo sapiens
Toll-like receptor 8 [11] = target: T2, Toll-like receptor 8; experiment: Binding affinity to human TLR8 expressed in HEK-Blue hTLR8 cells; format: cell-based
Toll-like receptor 1/2 [12] = target: T4, Toll-like receptor 1/2
Description: Agonist activity at TLR1/TLR2 in human THP-1 cells

Toll-like receptor 1/2 [13] = target: T4, Toll-like receptor 1/2; experiment: Antagonist activity at TLR1/TLR2 (unknown origin); format: protein-complex assay
Toll-like receptor 4 [14] = target: T6, Toll-like receptor 4 (Mus musculus, UniProt Q9QUK6); experiment: Antagonist activity at TLR4 in mouse peritoneal macrophages assessed as inhibition of IL-6 production; format: cell-based, Peritoneal macrophage
T6 sequence (Q9QUK6 whole entry): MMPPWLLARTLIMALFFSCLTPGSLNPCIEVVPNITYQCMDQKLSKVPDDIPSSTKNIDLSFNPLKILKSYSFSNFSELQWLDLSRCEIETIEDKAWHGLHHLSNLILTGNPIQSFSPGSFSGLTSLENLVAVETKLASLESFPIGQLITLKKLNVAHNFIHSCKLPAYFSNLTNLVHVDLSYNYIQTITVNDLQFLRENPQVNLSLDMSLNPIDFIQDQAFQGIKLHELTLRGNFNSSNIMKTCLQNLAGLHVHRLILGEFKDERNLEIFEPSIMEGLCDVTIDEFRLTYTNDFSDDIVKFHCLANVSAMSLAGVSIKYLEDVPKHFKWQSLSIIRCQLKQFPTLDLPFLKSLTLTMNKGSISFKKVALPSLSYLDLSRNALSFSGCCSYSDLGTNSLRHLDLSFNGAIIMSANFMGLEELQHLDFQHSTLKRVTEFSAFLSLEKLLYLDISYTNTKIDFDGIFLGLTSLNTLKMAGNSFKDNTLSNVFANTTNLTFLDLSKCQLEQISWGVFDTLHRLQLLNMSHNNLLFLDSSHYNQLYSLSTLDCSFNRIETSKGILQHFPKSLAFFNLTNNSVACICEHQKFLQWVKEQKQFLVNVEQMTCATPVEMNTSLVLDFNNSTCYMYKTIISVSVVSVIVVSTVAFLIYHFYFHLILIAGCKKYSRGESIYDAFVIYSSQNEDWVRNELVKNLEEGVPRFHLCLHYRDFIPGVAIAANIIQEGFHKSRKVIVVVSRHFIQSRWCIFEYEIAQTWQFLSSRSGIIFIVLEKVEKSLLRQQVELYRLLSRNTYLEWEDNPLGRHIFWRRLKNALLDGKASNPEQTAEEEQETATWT

Toll-like receptor 4 [15] = target: T6, Toll-like receptor 4; experiment: Antagonist activity at TLR4 in mouse peritoneal macrophages assessed as inhibition of TNF-alpha production; format: cell-based, Peritoneal macrophage
Toll-like receptor 4 [16] = target: T6, Toll-like receptor 4; experiment: Antagonist activity at TLR4 in mouse peritoneal macrophages assessed as inhibition of NO production; format: cell-based, Peritoneal macrophage
Toll-like receptor 7 [17] = target: T1, Toll-like receptor 7; remark: listed apart in the source
Description: as §1

Sequence of Toll-like receptor 5 (O60602 whole entry): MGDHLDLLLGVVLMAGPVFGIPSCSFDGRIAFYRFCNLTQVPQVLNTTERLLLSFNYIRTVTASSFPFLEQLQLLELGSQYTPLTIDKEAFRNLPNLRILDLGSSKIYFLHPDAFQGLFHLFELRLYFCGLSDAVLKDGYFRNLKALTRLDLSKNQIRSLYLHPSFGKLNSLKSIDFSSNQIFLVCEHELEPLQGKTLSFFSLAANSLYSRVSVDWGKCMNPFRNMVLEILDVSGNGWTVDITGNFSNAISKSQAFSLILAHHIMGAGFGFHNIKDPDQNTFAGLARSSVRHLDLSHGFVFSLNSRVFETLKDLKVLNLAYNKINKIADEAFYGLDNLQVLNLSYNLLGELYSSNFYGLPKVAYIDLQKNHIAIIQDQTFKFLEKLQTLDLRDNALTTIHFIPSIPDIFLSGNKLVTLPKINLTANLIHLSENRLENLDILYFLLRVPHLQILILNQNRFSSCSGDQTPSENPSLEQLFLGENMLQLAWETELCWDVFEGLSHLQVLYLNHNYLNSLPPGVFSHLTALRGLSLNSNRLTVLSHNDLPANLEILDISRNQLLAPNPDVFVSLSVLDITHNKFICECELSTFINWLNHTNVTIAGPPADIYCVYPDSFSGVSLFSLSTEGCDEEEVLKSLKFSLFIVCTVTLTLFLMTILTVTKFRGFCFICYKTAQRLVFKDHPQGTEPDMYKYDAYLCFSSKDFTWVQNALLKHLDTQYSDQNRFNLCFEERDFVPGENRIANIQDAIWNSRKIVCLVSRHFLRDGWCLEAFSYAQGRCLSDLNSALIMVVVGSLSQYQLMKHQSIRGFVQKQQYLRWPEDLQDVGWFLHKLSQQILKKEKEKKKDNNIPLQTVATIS

Compound: CCCN(CCC)C(=O)C1=Cc2ccc(-c3cccc(C(=O)CC)c3)cc2N=C(N)C1
EC50 (Toll-like receptor 7 [1]): 16 nM
EC50 (Toll-like receptor 8 [2]): 8 nM

Compound: CCCCc1nc2c(N)nc3ccccc3c2o1
EC50 (Toll-like receptor 8 [4]): 180 nM

Compound: CCCN(CCC)C(=O)C1=Cc2ccc(-c3ccc(C(=O)N4CCCC4)cc3)cc2N=C(N)C1 [MOTOLIMOD]
EC50 (Toll-like receptor 8 [2]): ~100 nM

Compound: O=C(N[C@H](Cc1ccccc1)C(=O)O)c1sc2cc(F)ccc2c1Cl
IC50 (Toll-like receptor 3): 3440 nM

Compound: CCOC(=O)c1ccc(CC(=O)c2ccc(O)c(O)c2O)o1
IC50 (TLR2/TLR6 [8]): 5700 nM
IC50 (Toll-like receptor 1/2 [9]): 1700 nM

Compound: O=c1occ2c3c(ccc(O)c13)Oc1ccc(O)cc1-2
IC50 [10]: ~10000 nM

Compound: Cc1cccc(-c2ccnc3c(C(N)=O)cnn23)c1
Kd (Toll-like receptor 8 [11]): 220 nM

Compound: Cc1cc(C)c2c(n1)sc1c(Sc3nnc(-c4ccncc4)o3)ncnc12
IC50 (Toll-like receptor 5): 50500 nM

Compound: O=C(N[C@H](Cc1ccccc1)C(=O)O)c1cc2c(s1)CCCCC2
IC50 (Toll-like receptor 3): 154000 nM

Compound: CCCCCCOC(=O)c1cc(O)c(=O)c2c(O)c(O)c(OC)cc2c1
IC50 (TLR2/TLR6 [8]): 5600 nM
IC50 (Toll-like receptor 1/2 [13]): 580 nM
IC50 (Toll-like receptor 1/2 [9]): 9100 nM

Compound: COCCOc1nc(N)c2[nH]c(=O)n(Cc3ccccc3)c2n1
EC50 (Toll-like receptor 7 [1]): 140 nM

Compound: CCOC(=O)C1=CCCC[C@H]1S(=O)(=O)Nc1ccc(F)cc1Cl [RESATORVID]
IC50 (Toll-like receptor 4 [14]): 1.3 nM
IC50 (Toll-like receptor 4 [15]): 1.9 nM
IC50 (Toll-like receptor 4 [16]): 1.8 nM

Compound: CCCCn1cc2c(n1)c(N)nc1ccccc12
EC50 (Toll-like receptor 8 [4]): 56 nM
EC50 (Toll-like receptor 7 [17]): 190 nM

Second part, the compound after the results:

IC50 (Toll-like receptor 5): 3380 nM
Compound: c1cnc2sc3c(Sc4nnc(-c5ccncc5)o4)ncnc3c2c1

IC50 (Toll-like receptor 8 [3]): 0.8 nM
Compound: COc1ccc2c(-c3cnc(OCc4ccccc4)c(C)c3)ccnc2c1

IC50 (Toll-like receptor 4 [5]): 53 nM
Compound: CCCCCCCCCC(CCCCCCCCC)CC(=O)OC[C@H]1O[C@H](O[C@H]2O[C@H](COC(=O)CC(CCCCCCCCC)CCCCCCCCC)[C@@H](O)[C@H](O)[C@H]2O)[C@H](O)[C@@H](O)[C@@H]1O [VIZANTIN]

IC50 (Toll-like receptor 8 [3]): 0.1 nM
Compound: COc1ccc2c(-c3ccc(OCCCCO)c(C)c3)ccnc2c1

IC50 (TLR2/TLR6 [6]): 37600 nM
IC50 (Toll-like receptor 1/2 [7]): 19700 nM
Compound: COc1cccc(/C=N/c2cccc(C(=O)O)c2C)c1O

IC50 (Toll-like receptor 5): 3130 nM
Compound: c1ccc(-n2c(Sc3ncnc4c3sc3ncccc34)nnc2-c2ccncc2)cc1

EC50 (Toll-like receptor 7 [1]): > 100 nM
Compound: CCCN(CCC)C(=O)C1=Cc2ccc(C(=O)N3CC4(C3)CN(c3ccc(C)cc3)C4)cc2N=C(N)C1

EC50 (Toll-like receptor 1/2 [12]): 550 nM
Compound: CCOC(=O)c1c(NC(=O)N2CCN(C)CC2)sc2c1CCC2

IC50 (TLR2/TLR6 [6]): 37200 nM
IC50 (Toll-like receptor 1/2 [7]): 24200 nM
Compound: COc1cccc(C=O)c1O

EC50 (Toll-like receptor 7 [1]): > 100 nM
Compound: CCCN(CCC)C(=O)C1=Cc2ccc(C(=O)NC(c3ccccc3)c3ccccc3)cc2N=C(N)C1

EC50 (Toll-like receptor 7 [1]): ~3000 nM
Compound: CCc1nc2c(N)nc3ccccc3c2n1CCCCNS(C)(=O)=O [CPG-52852]
